Experimental data as given in patent publication EP4692091A1, “CA[…], AND PHARMACEUTICAL COMPOSITION, PREPARATION METHOD THEREFOR AND USE THEREOF” (Changchun Genescience Pharmaceutical Co., Ltd., priority 2023, dated 2024).

What was measured:
Format in all cases: cell-based
SK-BR-3 = assay: Inhibition of proliferation of SK-BR-3 cells by compounds (CellTiter-Glo, 72 h); conditions: SK-BR-3, 72 h incubation
Procedure: 3: Test method (1) Cell plating: first, tumor cells SK-BR-3 were cultured using a corresponding culture medium, trypsinized, centrifuged, resuspended for counting, adjusted to an appropriate concentration, and then plated on a 384-well plate. (2) Co-incubation of the compounds and tumor cells: after the cells adhered to the wall, 100 nL of a diluted bioactive substance (test compound) was added to the cell culture plate using ECHO, the final concentration of DMSO in wells of the cell plate was 0.33%, and the incubation was performed in an incubator at 37°C with 5% CO2 for 72 h. (3) After the incubation was complete, 30 µL of a CTG reagent (CelltiterGlo kit) was added to each well. The culture was oscillated on a fast oscillator for 2 min, centrifuged at 1,000 rpm for 1 min, and kept away from light at room temperature for 30 min. The chemiluminescence signal value was read using an Envision instrument. (4) Cell viability detection: IC50 was calculated using GraphPad Prism 8 software, and the IC50 of the compounds was obtained using the following nonlinear fitting formula (see Table 1) : 1. Y=Bottom+(Top-Bottom)/(1+10^((LogIC50-X)*HillSlope)) 2. […] Table 1 Antiproliferative activity of test compounds on SK-BR-3

MDA-MB-468 = assay: Inhibition of proliferation of MDA-MB-468 cells by test compounds (CellTiter-Glo, 72 h); conditions: MDA-MB-468, 72 h incubation
Procedure: 3: Test method • (1) Cell plating: first, tumor cells MDA-MB-468 were cultured using a corresponding culture medium, trypsinized, centrifuged, resuspended for counting, adjusted to an appropriate concentration, and then plated on a 384-well plate. • (2) Co-incubation of the compounds and tumor cells: after the cells adhered to the wall, 100 nL of a diluted bioactive substance (test compound) was added to the cell culture plate using ECHO, the final concentration of DMSO in wells of the cell plate was 0.33%, and the incubation was performed in an incubator at 37°C with […] for 72 h. • (3) After the incubation was complete, 30 µL of a CTG reagent (CelltiterGlo kit) was added to each well. The culture was oscillated on a fast oscillator for 2 min, centrifuged at 1,000 rpm for 1 min, and kept away from light at room temperature for 30 min. The chemiluminescence signal value was read using an Envision instrument. • (4) Cell viability detection: IC50 was calculated using GraphPad Prism 8 software, and the IC50 of the compounds was obtained using the following nonlinear fitting formula (see Table 2): • 6. Y=Bottom+(Top-Bottom)/(1+10^((LogIC50-X)*HillSlope)) • 7. […] Table 2 Antiproliferative activity of test compounds on MDA-MB-468

NCI-N87 = assay: Inhibition of proliferation of NCI-N87 cells by test compounds (CellTiter-Glo, 72 h); conditions: NCI-N87, 72 h incubation
Procedure: 3: Test method (1) Cell plating: first, tumor cells NCI-N87 were cultured using a corresponding culture medium, trypsinized, centrifuged, resuspended for counting, adjusted to an appropriate concentration, and then plated on a 384-well plate. (2) Co-incubation of the compounds and tumor cells: after the cells adhered to the wall, 100 nL of a diluted bioactive substance (test compound) was added to the cell culture plate using ECHO, the final concentration of DMSO in wells of the cell plate was 0.33%, and the incubation was performed in an incubator at 37°C with […] for 72 h. (3) After the incubation was complete, 30 µL of a CTG reagent (CelltiterGlo kit) was added to each well. The culture was oscillated on a fast oscillator for 2 min, centrifuged at 1,000 rpm for 1 min, and kept away from light at room temperature for 30 min. The chemiluminescence signal value was read using an Envision instrument. (4) Cell viability detection: IC50 was calculated using GraphPad Prism 8 software, and the IC50 of the compounds was obtained using the following nonlinear fitting formula (see Table 3) : 11. Y=Bottom+(Top-Bottom)/(1+10^((LogIC50-X)*HillSlope)) 12. […] Table 3 Antiproliferative activity of test compounds on cells NCI-N87

Row | Molecule | IC50 (SK-BR-3; Homo sapiens, SK-BR-3, 72 h) [µM] | IC50 (MDA-MB-468; Homo sapiens, MDA-MB-468, 72 h) [µM] | IC50 (NCI-N87; Homo sapiens, NCI-N87, 72 h) [µM] | IC50 (SK-BR-3) [µM] | IC50 (MDA-MB-468) [µM] | IC50 (NCI-N87) [µM]
1 | CC[C@@]1(O)C(=O)OCc2c1cc1n(c2=O)Cc2c-1nc1cc(F)c(C3CC3)c3c1c2C(NC(=O)C[C@@H](C)O)CC3 (single isomer, unassigned) [17-1] | 0.0046 | 0.0058 | 0.0036 |  |  | 
2 | CC[C@@]1(O)C(=O)OCc2c1cc1n(c2=O)Cc2c-1nc1cc(F)c(C3CC3)c3c1c2C(NC(=O)[C@H]1C[C@@H](O)C1)CC3 (single isomer, unassigned) [18-2] | 0.0096 | 0.012 | 0.0165 |  |  | 
3 | CC[C@@]1(O)C(=O)OCc2c1cc1n(c2=O)Cc2c-1nc1cc(F)c(C3CC3)c3c1c2C(NC(=O)C[C@@H](C)O)CCC3 (single isomer, unassigned) [19-1] | 0.0083 | 0.0071 | 0.0074 |  |  | 
4 | CC[C@@]1(O)C(=O)OCc2c1cc1n(c2=O)Cc2c-1nc1cc(F)c(C3CC3)c3c1c2C(NC(=O)C[C@@H](C)O)CCC3 (single isomer, unassigned) [19-2] |  |  |  | 0.0076 | 0.0069 | 0.0074
5 | CC[C@@]1(O)C(=O)OCc2c1cc1n(c2=O)Cc2c-1nc1cc(F)c(C3CC3)c3c1c2C(NC(=O)[C@H]1C[C@@H](O)C1)CCC3 (single isomer, unassigned) [20-1] | 0.021 | 0.0156 | 0.026 |  |  | 
6 | CC[C@@]1(O)C(=O)OCc2c1cc1n(c2=O)Cc2c-1nc1cc(F)c(C3CC3)c3c1c2C(NC(=O)[C@H]1C[C@@H](O)C1)CCC3 (single isomer, unassigned) [20-2] |  |  |  | 0.025 | 0.0195 | 0.028
7 | CC[C@@]1(O)C(=O)OCc2c1cc1n(c2=O)Cc2c-1nc1cc(F)c(C)c3c1c2C(NC(=O)[C@H]1C[C@@H](O)C1)CCO3 (single isomer, unassigned) [25-1] |  |  |  | 0.08 | 0.069 | 0.11
8 | CC[C@@]1(O)C(=O)OCc2c1cc1n(c2=O)Cc2c-1nc1cc(F)c(C)c3c1c2C(NC(=O)[C@H]1C[C@@H](O)C1)CCO3 (single isomer, unassigned) [25-2] |  |  |  | 0.019 | 0.018 | 0.04
9 | CC[C@@]1(O)C(=O)OCc2c1cc1n(c2=O)Cc2c-1nc1cc(F)c(Br)c3c1c2C(NC(=O)C[C@@H](C)O)CC3 (stereo partly drawn) [3-1, (R)-N-((1S,9S)-4-bromo-9-ethyl-5-fluoro-9-hydroxy-10,13-dioxo-2,3,9,10,13,15-hexahydro-1H,12H-benzo[de]pyrano[3',4',6,7]indolizino[1,2-b]quinolin-1-yl)-3-hydroxybutanamide] |  |  |  | 0.013 | 0.0075 | 0.016
10 | CC[C@@]1(O)C(=O)OCc2c1cc1n(c2=O)Cc2c-1nc1cc(F)c(Br)c3c1c2C(NC(=O)C[C@@H](C)O)CC3 (stereo partly drawn) [3-2, (R)-N-((1R,9S)-4-bromo-9-ethyl-5-fluoro-9-hydroxy-10,13-dioxo-2,3,9,10,13,15-hexahydro-1H,12H-benzo[de]pyrano[3',4',6,7]indolizino[1,2-b]quinolin-1-yl)-3-hydroxybutanamide] |  |  |  | 0.015 | 0.012 | 0.016
11 | CC[C@@]1(O)C(=O)OCc2c1cc1n(c2=O)Cc2c-1nc1cc(F)cc3c1c2C(NC(=O)C[C@@H](C)O)CC3 (stereo partly drawn) [4-1, (R)-N-((1S,9S)-9-ethyl-5-fluoro-9-hydroxy-10,13-dioxo-2,3,9,10,13,15-hexahydro-1H,12H-benzo[de]pyrano[3',4',6,7]indolizino[1,2-b]quinolin-1-yl)-3-hydroxybutanamide] |  |  |  | 0.061 | 0.034 | 
12 | CC[C@@]1(O)C(=O)OCc2c1cc1n(c2=O)Cc2c-1nc1cc(F)cc3c1c2C(NC(=O)C[C@@H](C)O)CC3 (stereo partly drawn) [4-2, (R)-N-((1R,9S)-9-ethyl-5-fluoro-9-hydroxy-10,13-dioxo-2,3,9,10,13,15-hexahydro-1H,12H-benzo[de]pyrano[3',4',6,7]indolizino[1,2-b]quinolin-1-yl)-3-hydroxybutanamide] |  |  |  | 0.014 | 0.013 | 0.022
13 | CC[C@@]1(O)C(=O)OCc2c1cc1n(c2=O)Cc2c-1nc1cc(F)c(OC(F)F)c3c1c2C(NC(=O)C[C@@H](C)O)CC3 (stereo partly drawn) [5-1, (R)-N-((1S,9S)-4-(difluoromethoxy)-9-ethyl-5-fluoro-9-hydroxy-10,13-dioxo-2,3,9,10,13,15-hexahydro-1H,12H-benzo[de]pyrano[3',4',6,7]indolizino[1,2-b]quinolin-1-yl)-3-hydroxybutanamide] |  |  |  | 0.02 | 0.0067 | 0.014
14 | CC[C@@]1(O)C(=O)OCc2c1cc1n(c2=O)Cc2c-1nc1cc(F)c(OC(F)F)c3c1c2C(NC(=O)C[C@@H](C)O)CC3 (stereo partly drawn) [5-2, (R)-N-((1R,9S)-4-(difluoromethoxy)-9-ethyl-5-fluoro-9-hydroxy-10,13-dioxo-2,3,9,10,13,15-hexahydro-1H,12H-benzo[de]pyrano[3',4',6,7]indolizino[1,2-b]quinolin-1-yl)-3-hydroxybutanamide] |  |  |  | 0.02 | 0.0094 | 0.018
15 | CC[C@@]1(O)C(=O)OCc2c1cc1n(c2=O)Cc2c-1nc1cc(F)c(C)c3c1c2C(NC(=O)C[C@@H](C)O)CCC3 (stereo partly drawn) [6-1, (R)-N-((1S,10S)-10-ethyl-6-fluoro-10-hydroxy-5-methyl-11,14-dioxo-1,2,3,4,10,11,14,16-octahydro-13H-cyclohepta[3',4',6,7]indolizino[1,2-b]quinolin-1-yl)-3-hydroxybutanamide] |  |  |  | 0.011 | 0.0088 | 0.0075
16 | C=Cc1c(F)cc2nc3c(c4c2c1CCC4NC(=O)C[C@@H](C)O)Cn1c-3cc2c(c1=O)COC(=O)[C@]2(O)CC (stereo partly drawn) [7-1, (R)-N-((1S,9S)-9-ethyl-5-fluoro-9-hydroxy-10,13-dioxo-4-vinyl-2,3,9,10,13,15-hexahydro-1H,12H-benzo[de]pyrano[3',4',6,7]indolizino[1,2-b]quinolin-1-yl)-3-hydroxybutanamide] |  |  |  | 0.0086 | 0.0031 | 
17 | CC[C@@]1(O)C(=O)OCc2c1cc1n(c2=O)Cc2c-1nc1cc(F)c(OCC(F)(F)F)c3c1c2C(NC(=O)C[C@@H](C)O)CC3 (stereo partly drawn) [8-2, (R)-N-((1R,9S)-9-ethyl-5-fluoro-9-hydroxy-10,13-dioxo-4-(2,2,2-trifluoroethoxy)-2,3,9,10,13,15-hexahydro-1H,12H-benzo[de]pyrano[3',4',6,7]indolizino[1,2-b]quinolin-1-yl)-3-hydroxybutanamide] |  |  |  | 0.087 | 0.038 | 
18 | CC[C@@]1(O)C(=O)OCc2c1cc1n(c2=O)Cc2c-1nc1cc(F)c(C3CC3)c3c1c2C(NC(=O)[C@H]1C[C@@H](O)C1)CC3 (stereo partly drawn) [18-1, (1S,3S)-N-((1R,9S)-4-cyclopropyl-9-ethyl-5-fluoro-9-hydroxy-10,13-dioxo-2,3,9,10,13,15-hexahydro-1H,12H-benzo[d]pyrano[3',4':6,7]indolizino[1,2-b]quinolin-1-yl)-3-hydroxycyclobutane-1-carboxamide] |  |  |  |  | 0.012 | 
19 | CC[C@@]1(O)C(=O)OCc2c1cc1n(c2=O)Cc2c-1nc1ccc(O)c3c1c2CCC3 [compound 9, (S)-9-ethyl-4,9-dihydroxy-1,2,3,9,12,15-hexahydro-10H,13H-benzopyrano[3',4',6,7]indolizino[1,2-b]quinoline-10,13-dione] |  |  | 0.003 |  |  | 
20 | (R)-3-cyclopropyl-N-((1S,9S)-4-cyclopropyl-9-ethyl-5-fluoro-9-hydroxy-10,13-dioxo-2,3,9,10,13,15-hexahydro-1H,12H-benzo[d]pyrano[3',4':6,7]indolizino[1,2-b]quinolin-1-yl)-3-hydroxypropanamide [34-2] |  |  |  |  | 0.004 | 0.006
